From the NIST ThermoML archive (doi:10.1021/je049738c)

Tests used:
[1] = 298.15 K; 101.33 kPa; Liquid
[2] = molar heat capacity at constant pressure; conditions: 298.15 K; 101.33 kPa; Liquid; Flow calorimetry
[3] = xn = mol fraction of the nth substance listed; conditions: 298.15 K, 101.3 kPa, Liquid
[4] = heat capacity at constant pressure per volume; xn = mol fraction of the nth substance listed; conditions: 298.15 K, 101.3 kPa, Liquid, Flow calorimetry

CCCO [propan-1-ol]
Conditions	mass density [kg/m3]	molar heat capacity at constant pressure [J/K/mol]
[1]	799.52	–
[2]	–	144.3

CC(C)C(C)O (stereo not drawn) [3-methyl-2-butanol] + O
Conditions	heat capacity, [4] [J/K/m3]	mass density, [3] [kg/m3]
x1 = 0.000786	4172900	996.49
x1 = 0.001489	4177000	996.01
x1 = 0.001981	4180000	995.68
x1 = 0.004452	4194900	994.09
x1 = 0.005029	4198500	993.72
x1 = 0.006358	4206900	992.91
x1 = 0.007481	4213800	992.25
x1 = 0.008252	4218900	991.83

CCC(C)CO (stereo not drawn) [2-methyl-1-butanol] + O
Conditions	heat capacity, [4] [J/K/m3]	mass density, [3] [kg/m3]
x1 = 0.000842	4172700	996.43
x1 = 0.000975	4173400	996.33
x1 = 0.001072	4174000	996.28
x1 = 0.001376	4175300	996.04
x1 = 0.001398	4175600	996.04
x1 = 0.00154	4176300	995.95
x1 = 0.002056	4179200	995.56
x1 = 0.002325	4180700	995.4
x1 = 0.002361	4180800	995.38
x1 = 0.002467	4181400	995.28
x1 = 0.002771	4182700	995.09
x1 = 0.002868	4183400	995.02
x1 = 0.002988	4184000	994.91
x1 = 0.003068	4184200	994.84
x1 = 0.003107	4184500	994.81
x1 = 0.003446	4186500	994.6

CC(C)O [propan-2-ol]
Conditions	mass density [kg/m3]	molar heat capacity at constant pressure [J/K/mol]
[1]	780.72	–
[2]	–	155.2

CCC(C)(C)O [2-methylbutan-2-ol] + O
Conditions	heat capacity, [4] [J/K/m3]	mass density, [3] [kg/m3]
x1 = 0.00166	4180000	995.9
x1 = 0.001774	4181000	995.84
x1 = 0.002795	4188600	995.15
x1 = 0.005273	4207000	993.56
x1 = 0.006999	4220500	992.51
x1 = 0.009307	4239300	991.15
x1 = 0.01213	4263400	989.63
x1 = 0.01355	4275900	988.89

CC(C)CO [2-methyl-1-propanol]
Conditions	mass density [kg/m3]	molar heat capacity at constant pressure [J/K/mol]
[1]	797.63	–
[2]	–	181.9

CCC(O)CC [3-pentanol] + O
Conditions	heat capacity, [4] [J/K/m3]	mass density, [3] [kg/m3]
x1 = 0.000803	4173700	996.49
x1 = 0.001033	4175300	996.33
x1 = 0.001252	4176900	996.18
x1 = 0.001864	4181400	995.77
x1 = 0.002399	4185100	995.4
x1 = 0.003282	4191500	994.83
x1 = 0.005357	4206400	993.51
x1 = 0.005689	4209600	993.32
x1 = 0.006773	4217300	992.61

CC(C)(C)CO [2,2-dimethyl-1-propanol] + O
Conditions	heat capacity, [4] [J/K/m3]	mass density, [3] [kg/m3]
x1 = 0.001702	4176200	995.77
x1 = 0.002268	4178900	995.36
x1 = 0.002665	4181000	995.08
x1 = 0.003113	4183100	994.74
x1 = 0.003563	4185300	994.42
x1 = 0.004331	4189100	993.87
x1 = 0.004832	4191800	993.52

CC(C)C(C)O (stereo not drawn) [3-methyl-2-butanol]
Conditions	mass density [kg/m3]	molar heat capacity at constant pressure [J/K/mol]
[1]	812.31	–
[2]	–	249.5

CCCO [propan-1-ol] + O
Conditions	heat capacity, [4] [J/K/m3]	mass density, [3] [kg/m3]
x1 = 0.000792	4170900	996.59
x1 = 0.002096	4175200	995.84
x1 = 0.002978	4178200	995.36
x1 = 0.006166	4189500	993.64
x1 = 0.008272	4197000	992.56
x1 = 0.01185	4209800	990.81
x1 = 0.01732	4230600	988.27
x1 = 0.02089	4243100	986.68

CCCCCO [pentan-1-ol] + O
Conditions	heat capacity, [4] [J/K/m3]	mass density, [3] [kg/m3]
x1 = 0.001069	4174500	996.21
x1 = 0.001645	4177900	995.78
x1 = 0.001775	4178800	995.68
x1 = 0.001916	4179400	995.57
x1 = 0.002185	4181300	995.37
x1 = 0.002474	4182900	995.16
x1 = 0.002743	4184600	994.96
x1 = 0.003049	4186100	994.73
x1 = 0.003529	4189200	994.4
